Measured values published in patent US20240117431A1, “STEM-CELL BASED BIOMARKER DISCOVERY” (THE REGENTS OF THE UNIVERSITY OF CALIFORNIA, priority 2020, published 2024).
“Also recorded” adds a separate entry of the source.

Assays:
TgUPRT (wild type) = target: T1, TgUPRT (wild type) (Toxoplasma gondii, UniProt Q26998); assay: Specific activity of TgUPRT variants with uracil analog substrates in vitro (phosphoribosyltransferase, HPLC); type: biochemical; conditions: 0.5 μg enzyme in 80 μL, 37° C., 2-5 min, substrates 1 mM, PBS pH 7.4; DMSO none (Uracil, 5-BrVUra), 1.6% (5-EtUra, 5-AU, 5AMU), 3.2% (5-VUra)
T1 construct: made in house; host or cells: E. coli BL21(DE3)
Protocol: Enzyme activity assay: The standard activity assay was performed by incubating 10 μL of free extract or 0.5 μg of pure His-tag enzyme with 1 mM Phosphoribosyl pyrophosphate (PRPP), 1 mM uracil, 5 mM MgCl2 in 50 mM PBS buffer pH 7.4 in a final volume of 80 μL. The reaction mixture was incubated at 37° C. for 2-5 min (300 rpm). Enzyme was inactivated by adding 80 μL of cold methanol in ice-bath and heating for 5 min at 100° C. After centrifugation at 9000×g for 5 min, samples were half-diluted with water and the NMP production was analysed by HPLC to quantitatively measure the reaction products as described below in the analytical methods. All determinations were carried out in triplicate assuming Michaelis-Menten conditions, and the maximum error was below 5%. […]
Substrate specificity studies Enzymatic synthesis of the different pyrimidine nucleoside monophosphate (NMP) derivatives was carried out by incubating 0.5 μg of pure His-tag enzyme with 1 mM PRPP, 1 mM pyrimidine base and 5 mM MgCl2 in 50 mM PBS buffer pH 7.4 (1.6-3.2% v/v DSMO). […] Subsequently, the reaction mixture was processed as described above and the NMP production was analyzed by HPLC.
Analytical methods: The production of NMPs was quantitatively measured with an ACE EXCEL 5 μm CN-ES 250×4.6 mm equilibrated with 100% trimethyl ammonium acetate at a flow rate of 0.8 mL/min. […]

mutants TgUPRT = assay: Phosphoribosyltransferase activity with recombinant TgUPRT mutants; type: biochemical, Toxoplasma gondii; conditions: five recombinant TgUPRT mutants, FIG. 9A
Protocol: Enzyme activity assay: The standard activity assay was performed by incubating 10 μL of free extract or 0.5 μg of pure His-tag enzyme with 1 mM Phosphoribosyl pyrophosphate (PRPP), 1 mM uracil, 5 mM MgCl2 in 50 mM PBS buffer pH 7.4 in a final volume of 80 μL. The reaction mixture was incubated at 37° C. for 2-5 min (300 rpm). Enzyme was inactivated by adding 80 μL of cold methanol in ice-bath and heating for 5 min at 100° C. After centrifugation at 9000×g for 5 min, samples were half-diluted with water and the NMP production was analysed by HPLC to quantitatively measure the reaction products as described below in the analytical methods. All determinations were carried out in triplicate assuming Michaelis-Menten conditions, and the maximum error was below 5%. In such conditions, one international activity unit (IU) was defined as the amount of enzyme producing 1 μmol/min of UMP under the assay conditions.
Substrate specificity studies Enzymatic synthesis of the different pyrimidine nucleoside monophosphate (NMP) derivatives was carried out by incubating 0.5 μg of pure His-tag enzyme with 1 mM PRPP, 1 mM pyrimidine base and 5 mM MgCl2 in 50 mM PBS buffer pH 7.4 (1.6-3.2% v/v DSMO). The experiments were performed according to the standard assay. Subsequently, the reaction mixture was processed as described above and the NMP production was analyzed by HPLC.
Analytical methods: The production of NMPs was quantitatively measured with an ACE EXCEL 5 μm CN-ES 250×4.6 mm equilibrated with 100% trimethyl ammonium acetate at a flow rate of 0.8 mL/min. Retention times for the reference bases and NMPs (hereafter abbreviated according to the recommendations of the IUPAC-IUB Commission on Biochemical Nomenclature) were as follows: uracil (Ura), 4.7 min; 5-azido uracil (5-AUra). […]
Following these exciting observations, a more quantitative approach to examined for differences between enzyme mutants and their enzyme kinetics with the analogs. […] Each purified enzyme was incubated with the different substrates and phosphoribosyltransferase activity was measured (FIG. 9A).

[1] = target: T2, uracil monophosphate synthetase (UMPS) overexpressed in HEK cells (Homo sapiens, UniProt P11172); assay: RNA incorporation with overexpression of UMPS, dot blot; type: cell-based; conditions: 1 mM, 24 hours, FIG. 12
T2 construct: expressed in transfected cells; host or cells: HEK cells
T2 sequence (P11172 1-480): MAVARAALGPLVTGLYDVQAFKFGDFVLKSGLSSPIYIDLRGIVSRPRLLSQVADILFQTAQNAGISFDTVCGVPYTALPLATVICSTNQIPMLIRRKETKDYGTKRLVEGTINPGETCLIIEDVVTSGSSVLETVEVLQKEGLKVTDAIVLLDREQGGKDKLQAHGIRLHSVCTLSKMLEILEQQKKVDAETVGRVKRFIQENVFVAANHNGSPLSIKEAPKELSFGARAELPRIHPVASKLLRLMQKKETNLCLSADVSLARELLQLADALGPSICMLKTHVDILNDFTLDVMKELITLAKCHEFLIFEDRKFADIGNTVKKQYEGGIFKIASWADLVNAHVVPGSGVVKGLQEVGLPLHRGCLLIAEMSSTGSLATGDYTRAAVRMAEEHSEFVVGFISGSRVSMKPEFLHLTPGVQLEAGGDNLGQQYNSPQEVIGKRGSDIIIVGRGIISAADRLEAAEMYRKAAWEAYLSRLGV
Protocol: Analogs were incubated for 24 hours at 1 mM concentration in HEK cells. RNA was extracted and biotinylated using MTSEA-Biotin, followed by dot-blot analysis. Strep-HRP=Streptavidin conjugated Horseradish peroxidase. MeBI=methylene blue staining serving as loading control.

T1 sequence (Q26998 whole entry): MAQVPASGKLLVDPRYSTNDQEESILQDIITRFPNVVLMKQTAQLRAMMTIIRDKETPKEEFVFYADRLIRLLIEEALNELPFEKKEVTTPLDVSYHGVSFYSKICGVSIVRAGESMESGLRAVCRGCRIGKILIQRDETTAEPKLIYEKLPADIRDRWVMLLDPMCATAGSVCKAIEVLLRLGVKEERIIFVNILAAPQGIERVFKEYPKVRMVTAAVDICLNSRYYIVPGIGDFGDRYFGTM

## C#Cc1c[nH]c(=O)[nH]c1=O [compound 1, 5-ethynylpyrimidine-2,4(1H,3H)-dione]
TgUPRT (wild type)
  Specific Activity, TgUPRT: reactive
Mutants TgUPRT
  reactivity with the mutants (phosphoribosyltransferase activity): 10 IU/mg
[1]
  incorporation into cellular RNA with UMPS overexpression: higher amount; also recorded: incorporation

## C=Cc1c[nH]c(=O)[nH]c1=O [compound 2, 5-Vinylpyrimidine-2,4(1H,3H)-dione]
TgUPRT (wild type)
  Specific Activity, TgUPRT: undetectable activity
Mutants TgUPRT
  reactivity with the mutants (phosphoribosyltransferase activity): increased dramatically
[1]
  incorporation into cellular RNA with UMPS overexpression: did not result in 2 incorporation into RNA and not
